In brackets after ≈: the same amount, converted by molar mass. Entries after “also recorded” stand apart in the source; their conditions may differ. Marks after values point to notes of the source that are not given here. One block for each molecule: values may come before it.
What was measured:
BSEP [1] = target: T1, BSEP (Homo sapiens, UniProt O95342); assay: in vitro
[2] = Solubility in stock solvent and assay buffers
BSEP [3] = target: T1, BSEP; assay: Inhibition of 3H-taurocholic acid uptake by BSEP membrane vesicles (inhibitor assessment); conditions: for inhibitor of BSEP (conclusion in words): criterion >25% concentration-dependent inhibition of probe substrate uptake; for ATP-Dependent Uptake Activity of 3H-taurocholic acid / Signal-to-Noise Ratio / Uptake Activity of 3H-taurocholic acid, Mg-AMP / Uptake Activity of 3H-taurocholic acid, Mg-ATP: 3H-taurocholic acid 1 μM
BSEP [4] = target: T1, BSEP; assay: ATP-dependent uptake of test article by BSEP-transfected Sf9 membrane vesicles (substrate assessment); conditions: for remaining BSEP activity after cyclosporine A treatment: test article 1 and 10 μM + cyclosporine A 20 μM; for substrate of BSEP (conclusion in words): criteria ≥2-fold ATP-dependent uptake and >50% inhibition by selective inhibitor; for inhibition of test article uptake by cyclosporine A: cyclosporine A 20 μM
[5] = assay buffers, aqueous buffer, kinetic from dmso stock
[6] = methanol, organic solvent or mixture
[7] = test article 1 μM + cyclosporine 20 μM
[8] = test article 10 μM + cyclosporine 20 μM
[9] = test article 10 μM, listed as UA

T1 sequence (O95342 whole entry): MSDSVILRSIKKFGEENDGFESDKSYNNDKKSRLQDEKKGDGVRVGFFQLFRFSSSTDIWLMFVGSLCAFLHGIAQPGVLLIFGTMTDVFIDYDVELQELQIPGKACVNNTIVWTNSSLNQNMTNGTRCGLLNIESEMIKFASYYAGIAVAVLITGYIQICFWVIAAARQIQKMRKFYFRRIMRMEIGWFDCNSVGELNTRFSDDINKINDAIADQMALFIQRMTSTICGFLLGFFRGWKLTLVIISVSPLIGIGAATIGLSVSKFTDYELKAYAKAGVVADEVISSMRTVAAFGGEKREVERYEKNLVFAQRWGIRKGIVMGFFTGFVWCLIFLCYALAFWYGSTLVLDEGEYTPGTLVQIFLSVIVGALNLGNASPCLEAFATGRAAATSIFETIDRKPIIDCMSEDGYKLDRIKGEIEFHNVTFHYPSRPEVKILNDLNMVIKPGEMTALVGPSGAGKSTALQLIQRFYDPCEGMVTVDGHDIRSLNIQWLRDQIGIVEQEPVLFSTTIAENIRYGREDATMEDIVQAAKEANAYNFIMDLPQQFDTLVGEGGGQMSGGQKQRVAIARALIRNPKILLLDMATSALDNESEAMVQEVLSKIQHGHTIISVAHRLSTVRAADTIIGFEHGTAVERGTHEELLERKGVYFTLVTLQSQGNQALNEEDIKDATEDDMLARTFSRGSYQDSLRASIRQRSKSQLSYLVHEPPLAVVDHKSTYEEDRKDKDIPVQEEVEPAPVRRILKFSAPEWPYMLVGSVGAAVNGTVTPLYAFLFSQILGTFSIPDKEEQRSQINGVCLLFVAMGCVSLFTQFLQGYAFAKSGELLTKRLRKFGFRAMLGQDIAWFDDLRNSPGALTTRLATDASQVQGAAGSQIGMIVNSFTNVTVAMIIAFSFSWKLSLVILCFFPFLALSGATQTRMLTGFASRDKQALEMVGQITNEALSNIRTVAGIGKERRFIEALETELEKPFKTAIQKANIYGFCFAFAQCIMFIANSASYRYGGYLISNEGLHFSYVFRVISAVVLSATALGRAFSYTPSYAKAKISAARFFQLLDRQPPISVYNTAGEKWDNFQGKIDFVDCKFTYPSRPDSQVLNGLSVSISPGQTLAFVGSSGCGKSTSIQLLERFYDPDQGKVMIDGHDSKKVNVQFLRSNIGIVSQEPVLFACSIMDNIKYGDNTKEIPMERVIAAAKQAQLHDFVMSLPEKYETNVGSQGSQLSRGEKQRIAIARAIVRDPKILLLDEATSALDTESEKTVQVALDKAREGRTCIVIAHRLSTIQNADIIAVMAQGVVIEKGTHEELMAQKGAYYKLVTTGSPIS

Compound: C[C@H](CCC(=O)NCC(=O)O)[C@H]1CC[C@H]2[C@@H]3[C@@H](O)C[C@@H]4C[C@H](O)CC[C@]4(C)[C@H]3CC[C@]12C [Glycoursodeoxycholic acid]
activity at 30 min, 10 μM (BSEP [1]): 48.3%
activity at 30 min, 100 μM (BSEP [1]): 10.4%
potency estimated from few doses at 30 min (BSEP [1]): < 10 µM
solubility [2, 5]: 0.1 mM (≈ 45 µg/mL)
solubility [2, 6]: 50 mM (≈ 22500 µg/mL)
inhibitor of BSEP (conclusion in words) (BSEP [3]): strongly inhibited; also recorded: inhibited
inhibitor of BSEP (conclusion in words) (BSEP [3]; listed as glycoursodeoxycholic acid): inhibitors of BSEP
ATP-Dependent Uptake Activity of 3H-taurocholic acid (BSEP [3]; inhibitor 10 μM): 8.56 pmol/minute/mg protein
Signal-to-Noise Ratio (BSEP [3]; inhibitor 10 μM): 11.9
Uptake Activity of 3H-taurocholic acid, Mg-AMP (BSEP [3]; inhibitor 10 μM): 0.788 pmol/minute/mg protein
Uptake Activity of 3H-taurocholic acid, Mg-ATP (BSEP [3]; inhibitor 10 μM): 9.35 pmol/minute/mg protein
ATP-Dependent Uptake Activity of 3H-taurocholic acid (BSEP [3]; inhibitor 100 μM): 1.84 pmol/minute/mg protein
Signal-to-Noise Ratio (BSEP [3]; inhibitor 100 μM): 2.89
Uptake Activity of 3H-taurocholic acid, Mg-AMP (BSEP [3]; inhibitor 100 μM): 0.974 pmol/minute/mg protein
Uptake Activity of 3H-taurocholic acid, Mg-ATP (BSEP [3]; inhibitor 100 μM): 2.81 pmol/minute/mg protein
ATP-Dependent Uptake Activity of test article (BSEP [4]; test article 1 μM): 11.2 pmol/minute/mg protein
Uptake Activity of test article, Mg-AMP (BSEP [4]; test article 1 μM): BLQ
Uptake Activity of test article, Mg-ATP (BSEP [4]; test article 1 μM): 11.2 pmol/minute/mg protein
Uptake Activity of test article, Mg-AMP (BSEP [4]; [7]): BLQ
Uptake Activity of test article, Mg-ATP (BSEP [4]; [7]): BLQ
ATP-Dependent Uptake Activity of test article (BSEP [4]; test article 10 μM): 14.2 pmol/minute/mg protein
Uptake Activity of test article, Mg-AMP (BSEP [4]; test article 10 μM): BLQ
Uptake Activity of test article, Mg-ATP (BSEP [4]; test article 10 μM): 14.2 pmol/minute/mg protein
ATP-Dependent Uptake Activity of test article (BSEP [4]; [8]): 0.00^b pmol/minute/mg protein
Uptake Activity of test article, Mg-AMP (BSEP [4]; [8]): 6.93 pmol/minute/mg protein
Uptake Activity of test article, Mg-ATP (BSEP [4]; [8]): BLQ
ATP-dependent BSEP uptake activity relative to AMP uptake (BSEP [4]; test article 1 and 10 μM): > 2 fold
remaining BSEP activity after cyclosporine A treatment (BSEP [4]): No remaining BSEP activity
substrate of BSEP (conclusion in words) (BSEP [4]; test article 1 and 10 μM): a substrate of BSEP transporters
substrate of BSEP (conclusion in words) (BSEP [4]; test article 1 and 10 μM, listed as glycoursodeoxycholic acid): a substrate of BSEP
inhibition of test article uptake by cyclosporine A (BSEP [4]; test article 1 and 10 μM): inhibited by cyclosporine A

solubility [2, 5]: 0.25 mM
solubility [2, 6]: 50 mM
Compound: O=C(O)CCCc1ccccc1 [Sodium phenylbutyrate]
activity at 30 min, 25 μM (BSEP [1]): 77.2%
activity at 30 min, 250 μM (BSEP [1]): 82.4%
inhibitor of BSEP (conclusion in words) (BSEP [3]): did not meet the criteria for identification as an inhibitor; also recorded: did not inhibit
ATP-Dependent Uptake Activity of 3H-taurocholic acid (BSEP [3]; inhibitor 25 μM): 19.3 pmol/minute/mg protein
Signal-to-Noise Ratio (BSEP [3]; inhibitor 25 μM): 35.9
Uptake Activity of 3H-taurocholic acid, Mg-AMP (BSEP [3]; inhibitor 25 μM): 0.554 pmol/minute/mg protein
Uptake Activity of 3H-taurocholic acid, Mg-ATP (BSEP [3]; inhibitor 25 μM): 19.9 pmol/minute/mg protein
ATP-Dependent Uptake Activity of 3H-taurocholic acid (BSEP [3]; inhibitor 250 μM): 20.6 pmol/minute/mg protein
Signal-to-Noise Ratio (BSEP [3]; inhibitor 250 μM): 31.6
Uptake Activity of 3H-taurocholic acid, Mg-AMP (BSEP [3]; inhibitor 250 μM): 0.673 pmol/minute/mg protein
Uptake Activity of 3H-taurocholic acid, Mg-ATP (BSEP [3]; inhibitor 250 μM): 21.3 pmol/minute/mg protein
Uptake Activity of test article, Mg-AMP (BSEP [4]; test article 1 μM): BLQ
Uptake Activity of test article, Mg-ATP (BSEP [4]; test article 1 μM): BLQ
Uptake Activity of test article, Mg-AMP (BSEP [4]; [8]): BLQ
Uptake Activity of test article, Mg-ATP (BSEP [4]; [8]): BLQ
uptake of test article by BSEP vesicles (BSEP [4]; test article 1 and 10 μM): not detected
substrate of BSEP (conclusion in words) (BSEP [4]; test article 1 and 10 μM): not a substrate of BSEP
substrate of BSEP (conclusion in words) (BSEP [4]; test article 1 and 10 μM, listed as sodium phenylbutyrate): not identified as a substrate

solubility [2, 5]: 0.5 mM (≈ 196 µg/mL)
solubility [2, 6]: 100 mM (≈ 39300 µg/mL)
Compound: C[C@H](CCC(=O)O)[C@H]1CC[C@H]2[C@@H]3[C@@H](O)C[C@@H]4C[C@H](O)CC[C@]4(C)[C@H]3CC[C@]12C [Ursodeoxycholic acid]
IC50 at 30 min (BSEP [1]): < 500 µM
activity at 30 min, 50 μM (BSEP [1]): 64%
activity at 30 min, 500 μM (BSEP [1]): 4.5%
potency estimated from few doses at 30 min (BSEP [1]): < 500 µM
inhibitor of BSEP (conclusion in words) (BSEP [3]): inhibited uptake of the probe substrate
inhibitor of BSEP (conclusion in words) (BSEP [3]; listed as ursodeoxycholic acid): inhibitors of BSEP
ATP-Dependent Uptake Activity of 3H-taurocholic acid (BSEP [3]; inhibitor 50 μM): 6.04 pmol/minute/mg protein
Signal-to-Noise Ratio (BSEP [3]; inhibitor 50 μM): 9.66
Uptake Activity of 3H-taurocholic acid, Mg-AMP (BSEP [3]; inhibitor 50 μM): 0.697 pmol/minute/mg protein
Uptake Activity of 3H-taurocholic acid, Mg-ATP (BSEP [3]; inhibitor 50 μM): 6.73 pmol/minute/mg protein
ATP-Dependent Uptake Activity of 3H-taurocholic acid (BSEP [3]; inhibitor 500 μM): 0.425 pmol/minute/mg protein
Signal-to-Noise Ratio (BSEP [3]; inhibitor 500 μM): 1.95
Uptake Activity of 3H-taurocholic acid, Mg-AMP (BSEP [3]; inhibitor 500 μM): 0.449 pmol/minute/mg protein
Uptake Activity of 3H-taurocholic acid, Mg-ATP (BSEP [3]; inhibitor 500 μM): 0.873 pmol/minute/mg protein
ATP-Dependent Uptake Activity of test article (BSEP [4]; test article 1 μM): could not be detected
Uptake Activity of test article, Mg-AMP (BSEP [4]; test article 1 μM): BLQ
Uptake Activity of test article, Mg-ATP (BSEP [4]; test article 1 μM): BLQ
Uptake Activity of test article, Mg-AMP (BSEP [4]; [7]): BLQ
Uptake Activity of test article, Mg-ATP (BSEP [4]; [7]): BLQ
ATP-Dependent Uptake Activity of test article (BSEP [4]; test article 10 μM): 0.792 pmol/minute/mg protein
Signal-to-Noise Ratio (BSEP [4]; test article 10 μM): 1.26
Uptake Activity of test article, Mg-AMP (BSEP [4]; test article 10 μM): 3.08^b pmol/minute/mg protein
Uptake Activity of test article, Mg-ATP (BSEP [4]; test article 10 μM): 3.87^b pmol/minute/mg protein
Uptake Activity of test article, Mg-AMP (BSEP [4]; [8]): BLQ
Uptake Activity of test article, Mg-ATP (BSEP [4]; [8]): 5.61^b pmol/minute/mg protein
ATP-Dependent Uptake Activity of test article (BSEP [4]; [9]): 0.792^b pmol/minute/mg protein
Signal-to-Noise Ratio (BSEP [4]; [9]): 1.26^b
ATP-dependent BSEP uptake activity relative to AMP uptake (BSEP [4]; test article 1 and 10 μM): < 2 fold
substrate of BSEP (conclusion in words) (BSEP [4]; test article 1 and 10 μM): not a substrate
substrate of BSEP (conclusion in words) (BSEP [4]; test article 1 and 10 μM, listed as ursodeoxycholic acid): not a substrate of BSEP

solubility [2, 5]: 0.05 mM (≈ 25 µg/mL)
solubility [2, 6]: 10 mM (≈ 5000 µg/mL)
Compound: C[C@H](CCC(=O)NCCS(=O)(=O)O)[C@H]1CC[C@H]2[C@@H]3[C@@H](O)C[C@@H]4C[C@H](O)CC[C@]4(C)[C@H]3CC[C@]12C [Tauroursodeoxycholic acid]
activity at 30 min, 5 μM (BSEP [1]): 46.2%
activity at 30 min, 50 μM (BSEP [1]): 5.14%
potency estimated from few doses at 30 min (BSEP [1]): < 5 µM
inhibitor of BSEP (conclusion in words) (BSEP [3]): strongly inhibited; also recorded: inhibited
inhibitor of BSEP (conclusion in words) (BSEP [3]; listed as TURSO): inhibitors of BSEP
ATP-Dependent Uptake Activity of 3H-taurocholic acid (BSEP [3]; inhibitor 5 μM): 6.71 pmol/minute/mg protein
Signal-to-Noise Ratio (BSEP [3]; inhibitor 5 μM): 10.1^b
Uptake Activity of 3H-taurocholic acid, Mg-AMP (BSEP [3]; inhibitor 5 μM): 0.737 pmol/minute/mg protein
Uptake Activity of 3H-taurocholic acid, Mg-ATP (BSEP [3]; inhibitor 5 μM): 7.45^b pmol/minute/mg protein
ATP-Dependent Uptake Activity of 3H-taurocholic acid (BSEP [3]; inhibitor 50 μM): 0.747 pmol/minute/mg protein
Signal-to-Noise Ratio (BSEP [3]; inhibitor 50 μM): 2.34
Uptake Activity of 3H-taurocholic acid, Mg-AMP (BSEP [3]; inhibitor 50 μM): 0.556 pmol/minute/mg protein
Uptake Activity of 3H-taurocholic acid, Mg-ATP (BSEP [3]; inhibitor 50 μM): 1.30 pmol/minute/mg protein
ATP-Dependent Uptake Activity of test article (BSEP [4]; test article 1 μM): 14.4 pmol/minute/mg protein
Signal-to-Noise Ratio (BSEP [4]; test article 1 μM): 3.94
Uptake Activity of test article, Mg-AMP (BSEP [4]; test article 1 μM): 4.90^c pmol/minute/mg protein
Uptake Activity of test article, Mg-ATP (BSEP [4]; test article 1 μM): 19.3^b pmol/minute/mg protein
Uptake Activity of test article, Mg-AMP (BSEP [4]; [7]): BLQ
Uptake Activity of test article, Mg-ATP (BSEP [4]; [7]): BLQ
ATP-Dependent Uptake Activity of test article (BSEP [4]; test article 10 μM): 22.4 pmol/minute/mg protein
Signal-to-Noise Ratio (BSEP [4]; test article 10 μM): 10.6
Uptake Activity of test article, Mg-AMP (BSEP [4]; test article 10 μM): 2.33 pmol/minute/mg protein
Uptake Activity of test article, Mg-ATP (BSEP [4]; test article 10 μM): 24.7 pmol/minute/mg protein
ATP-Dependent Uptake Activity of test article (BSEP [4]; [8]): 2.81 pmol/minute/mg protein
Signal-to-Noise Ratio (BSEP [4]; [8]): 1.71
Uptake Activity of test article, Mg-AMP (BSEP [4]; [8]): 3.98 pmol/minute/mg protein
Uptake Activity of test article, Mg-ATP (BSEP [4]; [8]): 6.79 pmol/minute/mg protein
ATP-dependent BSEP uptake activity relative to AMP uptake (BSEP [4]; test article 1 and 10 μM): > 2 fold
remaining BSEP activity after cyclosporine A treatment (BSEP [4]): ≤ 12.6%
substrate of BSEP (conclusion in words) (BSEP [4]; test article 1 and 10 μM): a substrate of BSEP transporters
substrate of BSEP (conclusion in words) (BSEP [4]; test article 1 and 10 μM, listed as tauroursodeoxycholic acid): a substrate of BSEP
inhibition of test article uptake by cyclosporine A (BSEP [4]; test article 1 and 10 μM): inhibited by cyclosporine A

Source: patent publication US12138272B2, “Methods and compositions for treating amyotrophic lateral sclerosis” (Amylyx Pharmaceuticals, Inc., priority 2022, dated 2024)
